Assay results: patent US10308685B2, “Inhibitory peptides of viral infection” (UNIVERSITY OF TENNESSEE RESEARCH FOUNDATION, priority 2014, dated 2019)
Where no end group is shown, it is not given here.

Assays:
MCMV [1] = assay: Interference of peptide mediated reduction by heparin (MCMV plaque reduction); assay type: cell-based, Murine Cytomegalovirus; details: peptide 100 μM pre-incubated with heparin 1 h at 37° C. before addition to cells
Description: Peptide GGGY-p5+14 (SEQ ID NO: 25) (at 100 μM) was pre-incubated with heparin sodium salt (Acros Organics, NJ) at different concentrations for 1 h at 37° C. Following which the heparin/peptide mix was added to the cells and incubated for 30 min at 37° C. Following the incubation, the supernatant was aspirated and cells washed once with PBS to remove unbound/excess heparin or peptide. The cells were subsequently infected with ˜100 pfu/well of MCMV. To test whether heparin treatment of cells interferes with virus infection, MEF 10.1 cells in a 24 well dish were pre-incubated with different concentrations of heparin for 1 hour and washed as described above. Following the pre-incubation infection was initiated as mentioned above. Finally to test the effect of heparin treatment on the infectivity of virus, MCMV was incubated with different concentration of heparin for lhr before infecting cells. For all these treatments, the virus was removed lhr post infection and cells overlaid with CMC. Plates were incubated for 4 days before staining and counting the plaques. Plaque reduction assay was performed as mentioned above.

MEF 10.1 cells [2] = assay: Visualization of bound biotinylated peptide on fixed MEF cells (fluorescence); assay type: binding, Mouse; details: 1.6 μg/mL, streptavidin fluorescence
Description: Coverslips with fixed MEF cells prepared, washed in PBS and blocked with 1% BSA/PBS for 5 min. Following a PBS wash the nuclei were stained by using Hoechst (Life Technologies Molecular Probes, Grand Island, N.Y.) 1:100 in H2O— for 30 min at 37° C. Tissues were then blocked using a casein block solution (Scytek) for 5 min, AVIDIN/Biotin blocks (VECTOR, Burlingame, Calif.) for 20 min each at room temperature (RT) followed by a 5 min PBS wash. Biotinylated GGGY-p5+14 (SEQ ID NO: 25) or p5G (control) at 1.6 μg/mL in PBS was added and the tissues incubated overnight at 4° C. Following a PBS wash Alexa Fluor 594-conjugated streptavidin (Molecular Probes) was added at a 1:200 dilution in PBS for lhr at RT. Cells were then permeabilized by addition of 0.2% Triton X-100 (Sigma) in PBS for 10 min at RT and washed with a solution of 1% BSA in PBS for 30 min. The cells were then stained with Alexa Fluor 488-conjugated phalloidin (Molecular Probes) 1:100 dilution of stock in 1% BSA/PBS, for 45 min. at RT to visualize cytoskeleton. Slides were cover-slipped using a fluorescent mounting medium (Dako, Carpinteria, Calif.) to minimize photobleaching.

MCMV [3] = assay: Enzymatic treatment of cells (heparinase / chondroitinase) followed by MCMV plaque reduction assay; assay type: cell-based, Murine Cytomegalovirus
Description: (§1) Heparinase I (cat. # H2519), Heparinase II (cat. # H6512), Heparinase III (cat. # H8891) and Chondroitinase ABC (cat. # C3667) were obtained from Sigma Aldrich (St. Louis, Mo.). MEF 10.1 cells in culture were treated with heparinase re-suspended in heparinase buffer (20 mM Tris-HCl, pH 7.5, 50 mM NaCl, 4 mM CaCl2, and 0.01% BSA) at a concentration of 1 U/ml or chondroitinase re-suspended in chondroitinase buffer (50 mM Tris, pH 8.0, 60 mM sodium acetate and 0.02% bovine serum albumin) at a concentration of 1 U/ml for 1 h. at 37° C. As a control, cells were treated with enzyme buffer alone. Following incubation the enzyme solution was removed and cells were washed once with PBS to remove excess enzyme. Subsequently the cells were treated with peptide or infected with virus. The data was collected and analyzed as described previously.

MCMV [4] = assay type: cell-based, Murine Cytomegalovirus
Description: (§2) Murine Cytomegalovirus (MCMV) RM4503 was cultured in vitro in MEF 10.1 cells. The virus stock was titered using plaque assay (described below) and stored at −80° C. Human Cytomegalovirus (HCMV) TB40/E was obtained from (46, 47) and cultures in vitro in HFF cells. The virus stock was titered using plaque assay and stored at −80° C. HSV-1 and HSV-2 were cultured in vitro in VERO cells. The virus stock was titered using plaque assay and stored at −80° C.
(§3) Peptides were screened for their ability to reduce viral infection using a plaque reduction assay. Cells were cultured in 12-well (VERO) or 24-well culture plates (MEF 10.1 and HFF). When the cells reached ˜80% confluence the media was removed and the cells washed once with PBS before addition of peptide. As a control, cells were incubated with PBS alone. After a 30 min of incubation with peptide in PBS, the virus was added and incubated for another 90 min (HSV and HCMV) or 60 min (MCMV). Following virus incubation the peptide/virus mixture was removed and replaced with 0.75% carboxy-methyl cellulose (Sigma Aldrich, St. Louis, Mo.)+complete media (CMC) or 0.5% agarose (Lonza, Rockland, Me.) in complete media. The plates were incubated at 37° C. in 5% CO2 for 4 days when plaques began to develop, following which they were stained with Coomassie stain (AMRESCO, Solon, Ohio). Plaques were counted manually and data analyzed using Prism 5.0 (GraphPad Software, La Jolla, Calif.). Data were expressed as % plaques relative to the average number of plaques in the PBS-treated wells.
In the initial screening assays all peptides were tested at a single concentration (500 μg/ml) using a plaque-reduction assay, in which mouse embryonic fibroblasts were incubated with the peptides for 30 min prior to the addition of virus.
In the infectivity assays described above the peptide and virus were co-incubated with the cells. Therefore to ensure the peptide was not directly inactivating the virus, MCMV was incubated with 100 μM (˜20× the IC50) peptide at 37° C. for 1 h, diluted to an ineffective peptide concentration (1 μM) and fibroblast infection rates measured.
To determine at which stage of the MCMV entry cycle the peptide interferes, four different peptide treatment protocols were tested, 1) 30 min. prior to infection (pre-adsorption) 2) simultaneously with virus (during adsorption) 3) after letting the virus adsorb to the cells at 4° C. for lhr (post adsorption) or 4) after allowing the virus to fuse with the cell membrane at 37° C. for lhr (post fusion) (FIG. 3(B)).

[5] = mouse, in vivo; cited from earlier work
MEF 10.1 cells [6] = assay: Measuring amount of bound biotinylated peptide on MEF 10.1 cells (time resolved fluorescence); assay type: binding, Mouse
Description: as §1
MEF 10.1 Cells were grown in 24-well cell culture plates as described above. Each well was probed with 100 μL of biotinylated peptides at 1 μg/mL in cold DMEM/F12 with 0.1% BSA and incubated for one hour at 4° C. Following the incubation the cells were washed twice with ice cold PBS and fixed with 1.25% glutaraldehyde. Fixed samples were washed twice and stored in PBS for 24 hours. […] The plate was washed three times with PBS, enhancement solution added, and time resolved fluorescence measured on the Wallac Victor 3 (Perkin-Elmer).

HSV-2 = assay: Plaque reduction assay, HSV-2 in VERO cells; assay type: cell-based, herpes simplex virus; details: 100 μM
Description: as §2
as §3, with “The plates were incubated at 37° C. in 5% CO2 for 4 days when plaques began to develop, following which they were stained with Coomassie stain (AMRESCO, Solon, Ohio).” left out

HCMV = assay: Plaque reduction assay, HCMV infectivity in HFF cells; assay type: cell-based, Human Cytomegalovirus; details: 100 μM
Description: as §2
as §3, with “The plates were incubated at 37° C. in 5% CO2 for 4 days when plaques began to develop, following which they were stained with Coomassie stain (AMRESCO, Solon, Ohio).” left out

Question: Which “effect of pre-incubation of peptide with heparin on inhibition of MCMV infection” value (MCMV [1]) does the source give for “GGGYSKAQKAQAKQAKQAQKAQKAQAKQAKQAQKAQKAQAKQAKQ [GGGY-p5+14]” here?
Answer: The value was “reduced its ability to inhibit MCMV infection in a dose-dependent manner”.

Question: And the “binding to mouse fibroblasts in culture” value (MEF 10.1 cells [2])?
Answer: Its value is “bound mouse fibroblasts”.

Question: What about the “effect of chondroitinase treatment of cells on the activity of the peptide” value (MCMV [3]; chondroitinase 1 U/ml) of the same sequence?
Answer: The value was “nor did it have any effect on the activity of the peptide”.

Question: What about the “reduction in MCMV infectivity, peptide added to heparinase treated cells” value (MCMV [3]; heparinase 1 U/ml plus peptide) of the same sequence?
Answer: Its value is about 80%.

Question: What about the IC50 (MCMV [4]) of the same sequence?
Answer: The IC50 was 5.2 µM.

Question: And the “reduction in infection (MCMV)” value (MCMV [4]; 10 μM)?
Answer: The value was over 80%.

Question: What about the “inhibition of MCMV infection” value (MCMV [4]; 100 μM) of the same sequence?
Answer: The value was “effectively inhibited”.

Question: What about the “inhibition of MCMV infection (plaque reduction)” value (MCMV [4]; 500 μg/ml, mouse embryonic fibroblasts incubated with peptide 30 min prior to virus) of the same sequence?
Answer: The value was over 90%.

Question: And the “direct neutralizing effect on the virus” value (MCMV [4]; MCMV incubated with 100 μM peptide at 37° C. for 1 h, diluted to 1 μM)?
Answer: The value was “did not have any direct neutralizing effect on the virus itself”.

Question: What about the “plaque formation, peptide added after the adsorption or fusion phase of viral entry” value (MCMV [4]; post adsorption or post fusion) of the same sequence?
Answer: Its value is “no significant reduction in plaque formation”.

Question: And the “infection (plaque formation), peptide added before or in conjunction with virus addition” value (MCMV [4]; pre-adsorption or during adsorption)?
Answer: The value was over 80%.

Question: What about the “concentrations giving significant reduction in infection” value (MCMV [4]; serial dilution of peptide, FIG. 1(B)) of the same sequence?
Answer: The value was over 5 µg/mL.

Question: And the “peptide binding to GAGs expressed in healthy organs or tissues” value [5]?
Answer: The value was “no evidence of peptide binding to GAGs expressed in healthy organs or tissues”.

Question: What about the “reduction in the amount of bound peptide” value (MEF 10.1 cells [6]; cells treated with chondroitinase) of the same sequence?
Answer: The value was about 11%.

Question: And the “reduction in the amount of bound peptide” value (MEF 10.1 cells [6]; cells treated with heparinase)?
Answer: The value was about 40%.

Question: And the “reduction of HSV 2 infection” value (HSV-2)?
Answer: Its value is about 40%.

Question: And the “reduction of infection (HCMV)” value (HCMV)?
Answer: The value was about 80%.
